Data reported in PMC11220592 (Chemical Science, 2024).
Read-outs that look alike come from different tables or passages of the source.

Legend:
SARS-CoV-2 nsp13 = SARS-CoV-2 nsp13 (Severe acute respiratory syndrome coronavirus 2, UniProt P0DTD1); format: binding
[1] = target: T1, SARS-CoV-2 helicase (nsp13) (Severe acute respiratory syndrome coronavirus 2, UniProt P0DTD1)
[2] = target: T1, SARS-CoV-2 helicase (nsp13); settings: read-out: IC50 for unwinding activity
[3] = 100 nM nsp13, compound at 1 μM, 10 nM probe

Molecule | fluorescence intensity of BODIPY FL ATP-γ-S with nsp13 (SARS-CoV-2 nsp13; [3]) | fluorescence intensity of BODIPY FL ATP-γ-S with nsp13 (SARS-CoV-2 nsp13) | other results
Nc1nc2nc[nH]c2c(=S)[nH]1 [6-TG, 6-thioguanine] | did not observe any apparent decrease in the fluorescence intensity |  | 
Nc1ccc([O-])c(=O)cc1.Nc1ccc([O-])c(=O)cc1.Nc1ccc([O-])c(=O)cc1.[Bi+3] [Bi(Tro-NH2)3, Bi(5-aminotropolonate)3] |  |  | fold lower ATPase IC50 than that of Bi(NAC)3 [1]: over 30 fold; IC50 ([1]; read-out: IC50 for ATPase): 30 nM; IC50 [2]: 360 ± 20 nM
N[C@@H](CCC(=O)N[C@@H](CS)C(=O)NCC(=O)O)C(=O)O [GSH, glutathione] |  | did not observe any apparent decrease in the fluorescence intensity | 
CC(C)c1cccc(=O)c(O)c1 [Hino, hinokitiol] | did not observe any apparent decrease in the fluorescence intensity |  | 
CC(=O)N[C@@H](CS)C(=O)O [NAC, N-acetyl cysteine] | did not observe any apparent decrease in the fluorescence intensity |  | 
colloidal bismuth subcitrate [CBS] |  | decreased fluorescence intensities | 
